In assay [1] the test system is B16. Put plainly: Inhibition of melanogenesis in mouse B16 cells at 10 uM. It is filed as functional.
For assay [2], the system named is B16. Put plainly: Inhibition of melanogenesis in mouse B16 cells. It is filed as functional, cell-based.

`Cc1ccc(/C=N/NC(N)=S)cc1`: testing at 10 µM in the assay with B16 [1] gave an inhibition of 64%.
In the assay with B16 [1], `CCc1ccc(/C=N/NC(N)=S)cc1` had an inhibition at 10 µM above 100%.
In the case of `NC(=S)N/N=C/C1CCCCC1`, inhibition in the assay with B16 [2] was half-maximal at 3.4 µM (IC50). Besides, the inhibition at 10 µM with B16 [1] turned out to be 81%.
`Cc1cccc(/C=N/NC(N)=S)c1` gave a half-inhibitory concentration (IC50) with B16 [2] of 2.8 µM. Moreover, the inhibition at 10 µM with B16 [1] was above 100%.
Take `NC(=S)N/N=C/c1cccc(Cl)c1`: inhibition in the assay on B16 [2] was half-maximal at 2.4 µM (IC50). Moreover, in the assay on B16 [1], the inhibition at 10 µM is above 100%.
As to `Cc1ccccc1/C=N/NC(N)=S`, the IC50 in the assay with B16 [2] was 3.4 µM. In the assay on B16 [1], the inhibition at 10 µM was above 100%.
`CCc1ccccc1/C=N/NC(N)=S`: in the assay with B16 [2], the IC50 was 2.7 µM. This compound also gave an inhibition at 10 µM with B16 [1] above 100%.
With `NC(=S)N/N=C\c1cccc2ccccc12`, the IC50 in the assay with B16 [2] worked out at 1.1 µM. The compound also displayed an inhibition at 10 µM with B16 [1] above 100%.
The matching figures for `NC(=S)N/N=C/c1ccccc1Cl`: 1.4 µM and above 100%.
Compound `COc1cccc(/C=N/NC(N)=S)c1` showed a 50% inhibitory concentration (IC50) in the assay with B16 [2] of 15.4 µM. This compound displayed an inhibition at 10 µM with B16 [1] of 40%.
`NC(=S)N/N=C/c1ccccc1O` had a half-inhibitory concentration (IC50) in the assay on B16 [2] of 21 µM. The compound also came in with an inhibition at 10 µM in the assay with B16 [1] of 24%.
The matching figures for `N/C(S)=N/N=C/c1ccccn1`: above 30 µM and 15%.
The matching figures for `NC(=S)N/N=C/c1ccc(Cl)cc1`: 4.2 µM and 92%.
Compound `COc1ccc(/C=N/NC(N)=S)cc1` displayed an IC50 with B16 [2] of 15.1 µM. In the assay with B16 [1], this compound had an inhibition at 10 µM of 42%.
The compound `NC(=S)N/N=C/c1ccccc1` [PHENYLTHIOSEMICARBAZONE] displayed an IC50 with B16 [2] above 10 µM. Also, the inhibition at 10 µM in the assay with B16 [1] was below 10%.

Source of the values: ChEMBL document CHEMBL1268889, “Structural characteristics of thiosemicarbazones as inhibitors of melanogenesis” (Bioorg Med Chem Lett, 2010).
